One compound from US7741355B2, “Small-molecule modulators of TRP-p8 activity” (Dendreon Corporation, priority 2006, dated 2010) can be followed below.

Series [1] deals with T1, Trp-p8 (Homo sapiens, UniProt Q7Z2W7, T58I).
T1 construct: expressed in transfected cells; host or cells: CHO (Chinese Hamster Ovary) cells
Kind of series: ATP viability assay with CHO/Trp-p8 cells at 37° C. The class given is cell-based. The conditions noted are these: ATP viability assay.

The test system of series [2] is Parent CHO. In words: ATP viability assay with non-transfected (parent) CHO cells. The class given is cell-based, Chinese Hamster. The conditions noted are these: Cricetulus griseus. The text has this: Human Trp-p8 transfected CHO cells (referred to herein as CHO/Trp-p8) were generated for use in experiments of the present invention. Expression of Trp-p8 polypeptide in this transfectant and the absence of any endogenous expression in the non-transfected CHO was confirmed by western blot and immunofluorescence using a Trp-p8 specific antibody (GS2.20) as well as the calcium flux assay with Icilin (1-[2-hydroxyphenyl]-4-[3-nitrophenyl]-1,2,3,6-tetrahydropyrimidine-2-one) and menthol (2-isopropyl-5-methyl-cyclohexanol). Non-transfected CHO cells were used to establish the specificity of the effects of the compounds observed with CHO/Trp-p8.
As a primary screen for efficacy and specificity for agonists, both the non-transfected CHO and CHO/Trp-p8 cells were exposed to 1 or 10 μM of test compounds in 1% dimethylsulfoxide (DMSO) or 1% DMSO (control) in a 96-well black walled, black-bottomed, cell-culture treated plate. DMSO was the solvent for all of the compounds tested. After 24-26 hours at 37° C., the cells were lysed and ATP concentration determined via a chemiluminescence assay using a commercially available reagent kit—Cell Titer-Glo (Promega; Madison, Wis.). […] (EC50 is defined herein as the agonist concentration at which there is a 50% reduction in relative cell viability).

Series [3] concerns CHO/Trp-p8 xenograft. Kind of series: CHO/Trp-p8 murine tumor xenograft model. The class given is in vivo, mice. How it is done: FIGS. 6A-6B are graphs depicting results from an exemplary animal model suitable for testing and characterizing small-molecule Trp-p8 modulators of the present invention. Mice were injected subcutaneously with CHO/Trp-p8 cells, resulting in the formation of solid tumors. The length (longest dimension) and width (dimension perpendicular to and in the same plane as length) of each tumor was measured with Vernier calipers, and the tumor volume was approximated by a formula for the volume of an ellipsoid: 0.52*L*W^2. When the average tumor volume reached approximately 100 mm^3, the mice were randomized into groups. In FIG. 6A, the mice were administered a single dose of either a study compound as an aqueous formulation, or vehicle alone, by oral gavage. […] Tumors were then subsequently measured on the indicated days. […]
Mice were injected subcutaneously with CHO/Trp-p8 cells, resulting in the formation of solid tumors. The length (L; longest dimension) and width (W; dimension perpendicular to and in the same plane as length) of each tumor was measured with calipers, and the tumor volume was approximated by a formula for the volume of an ellipsoid: 0.52*L*W^2. […] Tumors were subsequently measured on the indicated days. […]
Mice were injected subcutaneously with CHO/Trp-p8 cells, resulting in the formation of solid tumors. […] Tumors were then subsequently measured on the indicated days. […]

For series [4], the system named is CHO-K1 cells lacking Trp-p8. In words: Matched CHO (Trp-p8-) murine tumor xenograft model (CHO-K1 cells lacking Trp-p8). In kind it is in vivo, mice. The conditions noted are these: 100 mg/kg, single oral dose. How it is done:
Mice were injected subcutaneously with CHO-K1 cells lacking Trp-p8, resulting in the formation of solid tumors. The length (L; longest dimension) and width (W; dimension perpendicular to and in the same plane as length) of each tumor was measured with Vernier calipers, and the tumor volume was approximated by a formula for the volume of an ellipsoid: 0.52*L*W^2. When the average tumor volume reached approximately 50 mm^3, the mice were randomized into groups, and administered either a single dose of the compound as an aqueous formulation, or vehicle, by oral gavage. Tumors were then subsequently measured on the indicated days. The data is presented as mean tumor volumes±standard error of the mean.

Series [5] has as its system LuCaP. In words: LuCaP murine tumor xenograft model expressing Trp-p8. In kind it is in vivo, mice. The conditions noted are these: intraperitoneal injection, once a day for 5 days; slower-growing tumor. As to the method: The LuCaP tumor model was obtained from Robert L. Vassella, Ph.D., Professor of Urology in the University of Washington's School of Medicine. The length (L; longest dimension) and width (W; dimension perpendicular to and in the same plane as length) of each tumor was measured with Vernier calipers, and the tumor volume was approximated by a formula for the volume of an ellipsoid: 0.52*L*W^2. When the average tumor volume reached approximately 150 mm^3, the mice were administered the compound, as an aqueous formulation, by intraperitoneal injection, once a day for 5 days. Tumors were then subsequently measured on the indicated days. The data is presented as mean tumor volumes±standard error of the mean.
Human prostate cancer xenografts expressing Trp-p8 (LuCaP, from Dr. Robert Vessella's lab in University of Washington—as assessed by in situ hybridization, quantitative polymerase chain reaction, and immunohistochemistry using a protein specific rabbit polyclonal antibody, T-904), as well as cell lines engineered to express Trp-p8, including CHO (Chinese Hamster Ovary) and EL-4 (Mouse Thymoma) cell lines, were used to establish tumor models in mice. Trp-p8 expression in the transfectants was confirmed by western blots and immunofluorescence using a Trp-p8 specific antibody (GS 2.20) as well as by response to known agonists in a calcium influx functional assay. […]

The nature of series [6]: Plasma concentrations in rats after a single oral dose. In kind it is in vivo. The conditions noted are these: rodents (FIG. 9A: rats), aqueous formulation, oral gavage. From the text: (§1) FIGS. 9A and 9B are graphs depicting the plasma concentrations of several compounds, as a function of time and dose, in rats (FIG. 9A), and dogs (FIG. 9B) after a single oral dose. […] Blood was collected at the indicated time points, and analyzed for drug levels.

Series [7] can be described thus: Plasma concentrations in dogs after a single oral dose. The class given is in vivo. The conditions noted are these: Beagle dogs (FIG. 9B), aqueous formulation, oral gavage.
From the text: as §1

Series [8] can be described thus: Sustained plasma levels after oral dosing (half-life, species not stated). The conditions noted are these: oral administration, read-out: t½ (sustained plasma levels) (converted). The class given is in vivo.
From the text: as §1

Structures are written as SMILES.

T1 sequence (Q7Z2W7 whole entry T58I): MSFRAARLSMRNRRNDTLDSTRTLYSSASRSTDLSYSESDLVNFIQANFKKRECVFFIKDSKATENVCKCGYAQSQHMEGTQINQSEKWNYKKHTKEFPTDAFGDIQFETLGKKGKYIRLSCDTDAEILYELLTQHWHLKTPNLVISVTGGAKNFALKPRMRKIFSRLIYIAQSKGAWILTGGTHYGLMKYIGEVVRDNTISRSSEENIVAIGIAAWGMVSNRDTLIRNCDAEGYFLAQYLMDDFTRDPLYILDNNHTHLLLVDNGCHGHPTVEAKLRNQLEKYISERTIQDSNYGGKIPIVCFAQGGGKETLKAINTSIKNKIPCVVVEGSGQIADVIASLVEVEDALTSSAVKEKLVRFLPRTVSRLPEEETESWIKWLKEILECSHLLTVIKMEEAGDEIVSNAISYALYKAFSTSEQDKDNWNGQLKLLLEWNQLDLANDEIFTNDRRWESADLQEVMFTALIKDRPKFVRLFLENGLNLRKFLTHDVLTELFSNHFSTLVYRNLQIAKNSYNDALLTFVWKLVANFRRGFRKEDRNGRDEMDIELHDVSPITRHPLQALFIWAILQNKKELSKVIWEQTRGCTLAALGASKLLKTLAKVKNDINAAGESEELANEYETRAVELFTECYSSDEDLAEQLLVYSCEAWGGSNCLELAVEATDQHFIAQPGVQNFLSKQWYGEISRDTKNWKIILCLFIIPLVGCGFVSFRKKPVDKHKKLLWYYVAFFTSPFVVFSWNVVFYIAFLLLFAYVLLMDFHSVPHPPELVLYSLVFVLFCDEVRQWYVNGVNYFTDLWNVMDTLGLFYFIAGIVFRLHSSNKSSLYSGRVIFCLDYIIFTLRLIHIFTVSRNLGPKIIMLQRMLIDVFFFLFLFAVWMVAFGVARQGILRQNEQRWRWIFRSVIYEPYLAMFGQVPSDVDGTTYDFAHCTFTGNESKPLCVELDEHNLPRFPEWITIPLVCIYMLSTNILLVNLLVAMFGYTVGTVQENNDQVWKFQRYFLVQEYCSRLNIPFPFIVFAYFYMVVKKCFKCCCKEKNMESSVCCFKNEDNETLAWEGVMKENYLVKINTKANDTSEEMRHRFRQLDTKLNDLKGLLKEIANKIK

As to `COc1ccc2c(c1)n(CCN)c(=O)n2C(=O)[C@@H]1C[C@H](C)CC[C@H]1C(C)C` [Compound I], in series [1], the “times more potent than Compounds II, III, and IV” value is “approximately 3 times”. The EC50 is 3 nM in series [1] (read-out: CHO/Trp-p8 EC50) and above 10000 nM in series [2]. In series [3] (fast-growing tumor), the “effect of treatment on tumor growth, CHO/Trp-p8 model” value was “attenuated growth, but did not cause regression”. In series [3] (single oral dose of 10 mg/kg), the “efficacy in the CHO/Trp-p8 xenograft model” value was “significant efficacy”. The “efficacy in the matched CHO (Trp-p8-) model” value in series [4] is on record as “did not show significant efficacy”. Further, the “effect of treatment on tumor growth, LuCaP model” value in series [5] was “statistically significant regression, as well as growth-inhibition”. For the same compound, the “exposure after a single oral administration” value in series [6] and in series [7] was “prolonged exposure” in each case. Moreover, in series [8], the half-life is around 9 h.
